Test results reported in US7015228B2, “4-amino-2-(2-pyridyl)pyrimidines as microbicidal active substances” (Ciba Specialty Chemicals Corporation, priority 2001, dated 2006).
Values after ≈ are worked out from the molar mass of the structure shown.

Columns and labels:
Type in all cases: cell-based
[1] = system: Epidermophyton floccosum DSM 10709; experiment: Minimum inhibitory concentration (MIC), further microorganisms; details: Table 8; * = significant inhibition of growth, but not complete inhibition
Procedure, shortened: (§1)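 Organisms at 1–5×10^6 CFU/ml were diluted 1:100 into CASO broth (bacteria, yeast) or Sabouraud 2% glucose broth (mould) over 1:2 DMSO dilution series of compound. Bacteria and yeast were incubated 48 h at 37 °C and mould 5 days at 28 °C. MIC is the lowest concentration giving ≤20% growth versus control by OD620, in duplicate.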

[2] = system: Candida albicans ATCC 10231; experiment: as above; details: Table 8; * = significant inhibition of growth, but not complete inhibition
Procedure, shortened: as §1

[3] = system: Enterococcus hirae ATCC 10541; experiment: as above; details: Table 8; * = significant inhibition of growth, but not complete inhibition
Procedure, shortened: as §1

[4] = system: Salmonella choleraesuis ATCC 10708; experiment: as above; details: Table 8
Procedure, shortened: as §1

[5] = system: Trichophyton mentagrophytes ATCC 9533; experiment: as above; details: Table 8; * = significant inhibition of growth, but not complete inhibition
Procedure, shortened: as §1

[6] = system: Micrococcus luteus ATCC 9341; experiment: as above; details: Table 8; * = significant inhibition of growth, but not complete inhibition
Procedure, shortened: as §1

[7] = system: Aspergillus niger ATCC 6275; experiment: as above; details: Table 8; * = significant inhibition of growth, but not complete inhibition
Procedure, shortened: as §1

[8] = system: Klebsiella pneumonia ATCC 4352; experiment: as above; details: Table 8; * = significant inhibition of growth, but not complete inhibition
Procedure, shortened: as §1

[9] = system: S. epidermidis ATCC 12228; experiment: as above; details: Table 8; * = significant inhibition of growth, but not complete inhibition
Procedure, shortened: as §1

[10] = system: Pseudomonas aeruginosa CIP A-22; experiment: as above; details: Table 8
Procedure, shortened: as §1

[11] = system: Staphylococcus aureus ATCC 9144; experiment: as above; details: Table 8; * = significant inhibition of growth, but not complete inhibition
Procedure, shortened: as §1

[12] = system: Staphylococcus hominis DMS 20328; experiment: Minimum inhibitory concentration (MIC) in microtitre plates; details: Table 7; 48 hours at 37° C.; MIC = ≦20% growth compared to control
Procedure, shortened: (§2)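 Compounds in DMSO, 1:2 dilution series; bacteria at 1–5×10^6 CFU/ml diluted 1:100 in CASO broth. Incubation 48 h at 37° C, growth read as OD 620 nm. MIC is the lowest concentration giving ≤20% growth relative to control; duplicates.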

[13] = system: Escherichia coli NCTC 8196; experiment: as above; details: for Minimum inhibitory concentration (MIC) E. coli: Table 7, 48 hours at 37° C., MIC = ≦20% growth compared to control; for Minimum inhibitory concentration (MIC) E. coli NCTC 8196: Table 8, * = significant inhibition of growth, but not complete inhibition
Procedure, shortened: as §2

| SMILES | Minimum inhibitory concentration (MIC) Epidermophyton floccosum DSM 10709 [1] | Minimum inhibitory concentration (MIC) Candida albicans ATCC 10231 [2] | Minimum inhibitory concentration (MIC) Enterococcus hirae ATCC 10541 [3] | Minimum inhibitory concentration (MIC) Salmonella choleraesuis ATCC 10708 [4] | Minimum inhibitory concentration (MIC) Trichophyton mentagrophytes ATCC 9533 [5] | Minimum inhibitory concentration (MIC) Micrococcus luteus ATCC 9341 [6] | Minimum inhibitory concentration (MIC) Aspergillus niger ATCC 6275 [7] | Minimum inhibitory concentration (MIC) Klebsiella pneumonia ATCC 4352 [8] | Minimum inhibitory concentration (MIC) S. epidermidis ATCC 12228 [9] | Minimum inhibitory concentration (MIC) Pseudomonas aeruginosa CIP A-22 [10] | Minimum inhibitory concentration (MIC) Staphylococcus aureus ATCC 9144 [11] | Minimum inhibitory concentration (MIC) S. hominis [12] | Minimum inhibitory concentration (MIC) E. coli [13] | Minimum inhibitory concentration (MIC) E. coli NCTC 8196 [13] |
| --- | --- | --- | --- | --- | --- | --- | --- | --- | --- | --- | --- | --- | --- | --- |
| CCCCCCCCCCCCNc1nc(-c2ccccn2)nc(C)c1CC [compound 12] | *30 μg/mL | *60 μg/mL | 7.5 µg/mL (≈ 19.6 µM) | >60 µg/mL | 60 µg/mL (≈ 157 µM) | <3.75 µg/mL | >60 µg/mL | >60 µg/mL | *7.5 μg/mL | >60 µg/mL | 15 µg/mL (≈ 39.2 µM) | 7.5 µg/mL (≈ 19.6 µM) | 120 µg/mL (≈ 314 µM) | >60 µg/mL |
| Cc1cc(NCCCCCCCCCN)nc(-c2ccccn2)n1 [compound 18] | >60 µg/mL | >60 µg/mL | >60 µg/mL | >60 µg/mL | >60 µg/mL | >60 µg/mL | >60 µg/mL | >60 µg/mL | >60 µg/mL | >60 µg/mL | >60 µg/mL | 120 µg/mL (≈ 366 µM) | >120 µg/mL | >60 µg/mL |
| Cc1cc(NCCCCCCCCCCCCN)nc(-c2ccccn2)n1 [compound 19] | >60 µg/mL | 7.5 µg/mL (≈ 20.3 µM) | 60 µg/mL (≈ 162 µM) | >60 µg/mL | >60 µg/mL | 7.5 µg/mL (≈ 20.3 µM) | >60 µg/mL | >60 µg/mL | 60 µg/mL (≈ 162 µM) | >60 µg/mL | 60 µg/mL (≈ 162 µM) | 15 µg/mL (≈ 40.6 µM) | 60 µg/mL (≈ 162 µM) | >60 µg/mL |
| CCCCCCCCNc1cc(C)nc(-c2ccccn2)n1 [compound 21] | >60 µg/mL | 120 µg/mL (≈ 402 µM) | 120 µg/mL (≈ 402 µM) | >120 µg/mL | >60 µg/mL | 120 µg/mL (≈ 402 µM) | >60 µg/mL | 120 µg/mL (≈ 402 µM) | 120 µg/mL (≈ 402 µM) | >120 µg/mL | 120 µg/mL (≈ 402 µM) | 3.75 µg/mL (≈ 12.6 µM) | 60 µg/mL (≈ 201 µM) | 120 µg/mL (≈ 402 µM) |
| CCCCCCCCCNc1cc(C)nc(-c2ccccn2)n1 [compound 22] | *7.5 μg/mL | 15 µg/mL (≈ 48 µM) | <3.75 µg/mL | >60 µg/mL | 15 µg/mL (≈ 48 µM) | <3.75 µg/mL | 60 µg/mL (≈ 192 µM) | >60 µg/mL | <3.75 µg/mL | >60 µg/mL | 7.5 µg/mL (≈ 24 µM) | 3.75 µg/mL (≈ 12 µM) | 120 µg/mL (≈ 384 µM) | >60 µg/mL |
| CCCCCCCCCCCCNc1cc(C)nc(-c2ccccn2)n1 [compound 24] | 60 µg/mL (≈ 169 µM) | 30 µg/mL (≈ 84.6 µM) | *15 μg/mL | >60 µg/mL | >60 µg/mL | <3.75 µg/mL | >60 µg/mL | >60 µg/mL | 3.75 µg/mL (≈ 10.6 µM) | >60 µg/mL | <3.75 µg/mL | 2.5 µg/mL (≈ 7.05 µM) | 80 µg/mL (≈ 226 µM) | >60 µg/mL |
